Laboratory results as given in US11642344B2, “Cholesteryl ester transfer protein (CETP) inhibitor and pharmaceutical compositions comprising said inhibitor for use in the treatment or prevention of cardiovascular diseases” (NewAmsterdam Pharma B.V., priority 2014, dated 2023).

Target: T1, CETP (Homo sapiens, UniProt P11597)
T1 construct: from tissue; host or cells: plasma of Caucasian male subjects dosed with Compound A or placebo
T1 sequence (P11597 18-493): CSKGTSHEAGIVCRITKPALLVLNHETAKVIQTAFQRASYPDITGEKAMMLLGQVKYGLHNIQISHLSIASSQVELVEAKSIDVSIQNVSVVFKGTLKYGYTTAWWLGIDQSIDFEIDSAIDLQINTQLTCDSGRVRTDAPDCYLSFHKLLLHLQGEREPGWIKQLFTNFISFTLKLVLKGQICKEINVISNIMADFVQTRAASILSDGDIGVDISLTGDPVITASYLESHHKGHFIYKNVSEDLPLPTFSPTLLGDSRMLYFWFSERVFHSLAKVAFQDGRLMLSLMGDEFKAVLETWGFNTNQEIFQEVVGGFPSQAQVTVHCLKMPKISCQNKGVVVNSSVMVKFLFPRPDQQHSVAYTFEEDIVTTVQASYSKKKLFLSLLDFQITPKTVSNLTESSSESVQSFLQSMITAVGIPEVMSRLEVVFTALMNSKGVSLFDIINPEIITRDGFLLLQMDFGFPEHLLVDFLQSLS
Test: In vitro CETP assay: 3H-labeled CE transfer from HDL to VLDL/LDL in human plasma
Assay type: biochemical
Details: 24 h pre-incubation at 37° C.
Procedure: Human blood was obtained from healthy male volunteers using 0.1% EDTA as an anticoagulant, and centrifuged at 3,000 rpm for 15 minutes at 4° C. Human plasma was pooled, and then used for the preparation of ^3H-labeled HDL or stored at −80° C. for CETP assay until use. The ^3H-labeled HDL was prepared with human plasma as described by Glenn and Melton (Methods in enzymology. 263; 339-351, 1996). The specific gravity of plasma was measured by a hydrometer, and the density was adjusted to 1.125 g/mL by adding solid KBr. After centrifugation at 100,000 rpm for 4 hours at 12° C. (rotor: 100.4, Optima TLX, Beckman), d>1.125 g/mL fraction was dialyzed against 4 L of Tris-saline-EDTA buffer (TSE; 50 mmol/L Tris, 150 mmol/L NaCl, 2 mmol/L EDTA, pH7.4) for 18 hours at 4° C. [1,2-^3H(N)]-Cholesterol (37 MBq/mL) was added to the dialyzed plasma fraction at the amount of 2 μCi/mL. The tube was tightly sealed under N2 gas stream and incubated at 37° C. for 18 hours with gently stirring to allow esterification of radio-labeled cholesterol by endogenous LCAT. The incubated plasma fraction was adjusted to d=1.21 g/mL with solid KBr, and centrifuged at 100,000 rpm, 12° C. for 5 hours. ^3H-labeled HDL fraction was dialyzed against 2 L of TSE at 4° C. for 18 hours. The radioactivity of ^3H-labeled HDL was counted in a liquid scintillation counter. ^3H-labeled HDL was stored at 4° C. until use.
CETP activity was determined as the rate of ^3H-labeled CE transfer from donor HDL to acceptor VLDL/LDL. Human plasma (94 μL) was pre-incubated with compounds dissolved in DMSO (1 μL) 24 hours at 37° C., and then incubated for 4 hours at 4° C. or 37° C. with 5 μL of ^3H-labeled HDL. One hundred μL of phosphotungstate/MgCl2 reagent (Wako pure chemical) were added to precipitate apoB-containing lipoproteins. After centrifugation at 3,000 rpm for 10 minutes at room temperature, the radioactivity of the supernatant was counted in a liquid scintillation counter. […] The concentration achieving 50% inhibition of CETP activity (IC50) was estimated.

CCOC(=O)N1c2ccc(C(F)(F)F)cc2[C@@H](N(Cc2cc(C(F)(F)F)cc(C(F)(F)F)c2)c2ncc(OCCCC(=O)O)cn2)C[C@H]1CC [Compound A, {4-[(2-{[3,5-bis(trifluoromethyl)benzyl][(2R,4S)-1-(ethoxycarbonyl)-2-ethyl-6-(trifluoromethyl)-1,2,3,4-tetrahydroquinolin-4-yl]amino}pyrimidin-5-yl)oxy]butanoic acid}]
IC50: 0.064 µM
